Assay results taken from US11426084B2, “Method, apparatus and computer program for noninvasively determining cause of blood pressure change” (THE ASAN FOUNDATION, priority 2017, dated 2022).

Test system: blood pressure, myocardial contractile force and vascular resistance
Experiment: Administration of a cardiovascular agonist/blocker; indexes on myocardial contractile force and vascular resistance and changes in S1a and S2a observed
Assay type: in vivo
Settings: for change in S1a and S2a when the drug is administered (in words): summary of Tables 2 to 4
Procedure: As cases of administering a cardiovascular agonist, Table 2 illustrates an experimental example in which various indexes on myocardial contractile force and vascular resistance and changes in S1a and S2a were observed when ephedrine of 10 mg as alpha and beta agonist was administered, Table 3 illustrates an experimental example in which various indexes on myocardial contractile force and vascular resistance and changes in S1a and S2a were observed when esmolol of 25 mg as beta-blocker was administered, and Table 4 illustrates an experimental example in which various indexes on myocardial contractile force and vascular resistance and changes in S1a and S2a were observed when phenylephrine of 100 mcg as the alpha agonist was administered. In order to determine the cause of the change in blood pressure, the above-described agents causing the change in blood pressure were administered and the response after the administration was examined.

## CN[C@@H](C)[C@H](O)c1ccccc1 [ephedrine]
After administration of ephedrine 10 mg, before administration 1.79 ± 0.83, P 0.209
  S12_R: 2.06 ± 0.84
After administration of ephedrine 10 mg, before administration 9.7 ± 2.1, P 0.014
  S′: 11.3 ± 2.7
After administration of ephedrine 10 mg, before administration 17.7 ± 8.1, P 0.004
  S2a: 22.6 ± 9.2 au
After administration of ephedrine 10 mg, before administration 27.6 ± 12.6, P 0.012
  S1a: 43.7 ± 24.9 au
After administration of ephedrine 10 mg, before administration 109.6 ± 13.2, P <0.001
  SBP: 139.3 ± 14.0 mmHg
After administration of ephedrine 10 mg, before administration 652 ± 70, P 0.029
  RRI: 625 ± 90 ms
After administration of ephedrine 10 mg, before administration 719.4 ± 199.2, P 0.011
  SVR: 892.6 ± 250.2 dyne · sec/cm^5
After administration of ephedrine 10 mg, before administration 725.2 ± 73.8, P 0.001
  dp/dt: 1065.5 ± 217.6 mmHg/s
  change in S1a and S2a when the drug is administered (in words): S1a and S2a increase together

## COC(=O)CCc1ccc(OCC(O)CNC(C)C)cc1 (centres unmarked) [esmolol]
After administration of esmolol 25 mg, before administration 2.6 ± 0.91, P 0.001
  S12_R: 1.4 ± 0.38
After administration of esmolol 25 mg, before administration 13.7 ± 4.4, P 0.011
  S′: 10.2 ± 2.1
After administration of esmolol 25 mg, before administration 19.6 ± 5.5, P 0.162
  S2a: 21.1 ± 5.4 au
After administration of esmolol 25 mg, before administration 49.3 ± 20.3, P 0.001
  S1a: 27.5 ± 9.3 au
After administration of esmolol 25 mg, before administration 136.1 ± 16.8, P <0.001
  SBP: 124.4 ± 13.2 mmHg
After administration of esmolol 25 mg, before administration 598 ± 96, P <0.001
  RRI: 700 ± 95 ms
After administration of esmolol 25 mg, before administration 776.4 ± 256.1, P 0.062
  SVR: 750.8 ± 251.0 dyne · sec/cm^5
After administration of esmolol 25 mg, before administration 1051.5 ± 233.4, P <0.001
  dp/dt: 804.3 ± 151.1 mmHg/s
  change in S1a and S2a when the drug is administered (in words): only S1a is significantly decreased

## CNC[C@H](O)c1cccc(O)c1 [phenylephrine]
After administration of phenylephrine 100 mcg, before administration 2.86 ± 1.73, P 0.531
  S12_R: 4.18 ± 6.7
After administration of phenylephrine 100 mcg, before administration 14.29 ± 7.53, P 0.016
  S2a: 18.89 ± 8.14 au
After administration of phenylephrine 100 mcg, before administration 33.6 ± 20.8, P 0.428
  S1a: 31.4 ± 15.5 au
After administration of phenylephrine 100 mcg, before administration 93.7 ± 13.2, P 0.014
  SBP: 111.5 ± 13.8 mmHg
After administration of phenylephrine 100 mcg, before administration 452.7 ± 110.0, P 0.007
  SVR: 524.0 ± 132.2 dyne · sec/cm^5
After administration of phenylephrine 100 mcg, before administration 575 ± 141, P 0.384
  RRI: 528 ± 197 ms
After administration of phenylephrine 100 mcg, before administration 585.1 ± 106.1, P <0.001
  dp/dt: 744.8 ± 95.3 mmHg/s
  change in S1a and S2a when the drug is administered (in words): any significant change does not occur in S1a unlike S2a
